Results as given in patent publication US8383084B2, “Destruction of spores through glycoconjugate enhanced phagocytosis” (priority 2006, dated 2013).
Read-outs that look alike come from different tables or passages of the source.

Experiments:
murine macrophages [1] = system: murine macrophages
murine macrophages [2] = type: cell-based, C57BL/6 mice
human macrophages = type: cell-based
B. cereus spores [3] = type: cell-based, Bacillus cereus ATCC 11778
murine macrophages [4] = type: cell-based, C57BL/6 mice; remark: listed apart in the source
B. cereus spores [5] = type: cell-based, Bacillus cereus ATCC 11778; remark: listed apart in the source
murine macrophages [6] = experiment: Comet assay (tail vs. head) and phagocyte diameter; type: cell-based, C57BL/6 mice; conditions: for diameter of phagocytes upon uptaking glycoconjugate-coated spores: compared to macrophages only, spores only, glycoconjugate alone; for uptake of coated spores and spore-induced cell death: glycoconjugate-coated spores, B; for uptake of coated spores and spore-induced cell death / effect of glycoconjugate-treated spores on murine macrophages (Comet assay): FIG. 10A; for diameter of phagocytic cells, glycoconjugate alone: glycoconjugates alone, dilutions 10^0, 10^-2, 10^-4; for effect of glycoconjugate-treated spores on murine macrophages (Comet assay): macrophages exposed to treated spores, 10B; for effect of glycoconjugate alone on macrophages (Comet assay): macrophages treated with glycoconjugate only, FIG. 10E, 10F
Method: Possible induction of apoptosis was determined by Comet assay (FIG. 10) using Trevigen (Gaithersburg, Md.) Comet assay kit and analyzed under epifluorescence microscope (FIG. 10). Nuclei with damaged DNA have the appearance of a comet with a bright head and a tail, whereas nuclei with undamaged DNA appear round, with no tail. Ration tail vs. head was measured in order to determine apoptosis (FIG. 10).

Row | Substance | macrophage viability (murine macrophages [1]) | induction of macrophage NO production (murine macrophages [2]) | macrophage NO production (extent) (murine macrophages [2]) | human macrophage NO production (human macrophages) | destruction of spores (B. cereus spores [3]) | dose at which 50% of the spores were killed (B. cereus spores [3]) | LDH release/production (murine macrophages [4]) | destruction of spores, following spores' exposure (B. cereus spores [5]) | destruction of spores, prior to exposure (B. cereus spores [5]) | destruction of the spores (in words) (B. cereus spores [5]) | spores killed, following exposure condition (B. cereus spores [5]) | spores killed, prior to and during exposure conditions (B. cereus spores [5]) | diameter of phagocytes upon uptaking glycoconjugate-coated spores (murine macrophages [6]) | uptake of coated spores and spore-induced cell death (murine macrophages [6]) | diameter of phagocytic cells, glycoconjugate alone (murine macrophages [6]) | effect of glycoconjugate-treated spores on murine macrophages (Comet assay) (murine macrophages [6]) | effect of glycoconjugate alone on macrophages (Comet assay) (murine macrophages [6]) | destruction of the spores (in words) (B. cereus spores [3])
1 | GalNAcα1-3 GalNAcβ-PAA-flu [GalNAcα1-3GalNAcβ-PAA-flu] | up to 87% | induced macrophage NO production | less stimulatory | stimulate human macrophage nitric oxide (NO) production | 86.4% | 100 pg/mL | 11.9% | 76.4% | 65.5% | almost total destruction of the spores | ~50% | 70-80% | increased | stimulates the uptake of coated spores and protect from spore-induced cell death | do not affect the diameter of phagocytic cells | pro-apoptotic effects | do not induce death | 
2 | Galα1-3 GalNAcα-PAA-flu [Galα1-3GalNAcα-PAA-flu] | ≤ 97.8% | induced macrophage NO production | doubled |  | 89.4% | 1 pg/mL | 8.9% |  |  |  |  |  | increased | stimulates the uptake of coated spores and protect from spore-induced cell death | do not affect the diameter of phagocytic cells | pro-apoptotic effects | do not induce death | almost total destruction of the spores
